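These data come from cells grown in 96-well plates and exposed to compound for 48 hours at five concentrations. At the TGI there is no net growth.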
Columns and labels:
Assay in all cases: NCI tumour cell line growth inhibition, 48 h
A498 renal = test system: A498 renal
A549 NSCLC = test system: A549 NSCLC
CAKI-1 renal = test system: CAKI-1 renal
CCRF-CEM leukemia = test system: CCRF-CEM leukemia
COLO 205 colon = test system: COLO 205 colon
DLD-1 colon = test system: DLD-1 colon
DMS 114 small cell lung = test system: DMS 114 small cell lung
DMS 273 small cell lung = test system: DMS 273 small cell lung
EKVX NSCLC = test system: EKVX NSCLC
HCC-2998 colon = test system: HCC-2998 colon
HCT-116 colon = test system: HCT-116 colon
HCT-15 colon = test system: HCT-15 colon
HL-60(TB) leukemia = test system: HL-60(TB) leukemia
HOP-18 NSCLC = test system: HOP-18 NSCLC
HOP-62 NSCLC = test system: HOP-62 NSCLC
HOP-92 NSCLC = test system: HOP-92 NSCLC
HT29 colon = test system: HT29 colon
IGROV1 ovarian = test system: IGROV1 ovarian
K-562 leukemia = test system: K-562 leukemia
KM12 colon = test system: KM12 colon
KM20L2 colon = test system: KM20L2 colon
LOX IMVI melanoma = test system: LOX IMVI melanoma
M19-MEL melanoma = test system: M19-MEL melanoma
MALME-3M melanoma = test system: MALME-3M melanoma
MCF7 breast = test system: MCF7 breast
MOLT-4 leukemia = test system: MOLT-4 leukemia
NCI-H226 lung = test system: NCI-H226 lung
NCI-H23 lung = test system: NCI-H23 lung
NCI-H460 lung = test system: NCI-H460 lung
NCI-H522 lung = test system: NCI-H522 lung
NCI/ADR-RES ovarian = test system: NCI/ADR-RES ovarian
OVCAR-3 ovarian = test system: OVCAR-3 ovarian
OVCAR-4 ovarian = test system: OVCAR-4 ovarian
OVCAR-5 ovarian = test system: OVCAR-5 ovarian
OVCAR-8 ovarian = test system: OVCAR-8 ovarian
P388 leukemia = test system: P388 leukemia
P388/ADR leukemia = test system: P388/ADR leukemia
RPMI-8226 leukemia = test system: RPMI-8226 leukemia
RXF 393 renal = test system: RXF 393 renal
SF-268 CNS = test system: SF-268 CNS
SF-295 CNS = test system: SF-295 CNS
SF-539 CNS = test system: SF-539 CNS
SK-MEL-2 melanoma = test system: SK-MEL-2 melanoma
SK-MEL-28 melanoma = test system: SK-MEL-28 melanoma
SK-MEL-5 melanoma = test system: SK-MEL-5 melanoma
SK-OV-3 ovarian = test system: SK-OV-3 ovarian
SN12C renal = test system: SN12C renal
SN12K1 renal = test system: SN12K1 renal
SNB-19 CNS = test system: SNB-19 CNS
SNB-75 CNS = test system: SNB-75 CNS
SNB-78 CNS = test system: SNB-78 CNS
SW-620 colon = test system: SW-620 colon
U251 CNS = test system: U251 CNS
UACC-257 melanoma = test system: UACC-257 melanoma
UACC-62 melanoma = test system: UACC-62 melanoma
UO-31 renal = test system: UO-31 renal
XF 498 CNS = test system: XF 498 CNS

## O=C1C(=O)c2cc([N+](=O)[O-])ccc2-c2ccc([N+](=O)[O-])cc21
A498 renal
  TGI: 3.79 µM
A549 NSCLC
  TGI: 5.97 µM
CAKI-1 renal
  TGI: 2.14 µM
CCRF-CEM leukemia
  TGI: 1.67 µM
COLO 205 colon
  TGI: 7.75 µM
DLD-1 colon
  TGI: 3.95 µM
DMS 114 small cell lung
  TGI: 0.908 µM
DMS 273 small cell lung
  TGI: 1.83 µM
EKVX NSCLC
  TGI: 3.94 µM
HCC-2998 colon
  TGI: 5.41 µM
HCT-116 colon
  TGI: 0.885 µM
HCT-15 colon
  TGI: 3.02 µM
HL-60(TB) leukemia
  TGI: 2.06 µM
HOP-18 NSCLC
  TGI: 8.89 µM
HOP-62 NSCLC
  TGI: 5.87 µM
HOP-92 NSCLC
  TGI: 1.64 µM
HT29 colon
  TGI: 22.7 µM
IGROV1 ovarian
  TGI: 2.29 µM
K-562 leukemia
  TGI: 2.01 µM
KM12 colon
  TGI: 2.66 µM
KM20L2 colon
  TGI: 21.7 µM
LOX IMVI melanoma
  TGI: 3.82 µM
M19-MEL melanoma
  TGI: 0.789 µM
MALME-3M melanoma
  TGI: 3.84 µM
MCF7 breast
  TGI: 2.61 µM
MOLT-4 leukemia
  TGI: 1.15 µM
NCI-H226 lung
  TGI: 4.09 µM
NCI-H23 lung
  TGI: 2.77 µM
NCI-H460 lung
  TGI: 2.65 µM
NCI-H522 lung
  TGI: 3 µM
NCI/ADR-RES ovarian
  TGI: 1.03 µM
OVCAR-3 ovarian
  TGI: 0.662 µM
OVCAR-4 ovarian
  TGI: 0.951 µM
OVCAR-5 ovarian
  TGI: 6.4 µM
OVCAR-8 ovarian
  TGI: 1.27 µM
P388 leukemia
  TGI: 0.52 µM
P388/ADR leukemia
  TGI: 2.54 µM
RPMI-8226 leukemia
  TGI: 1.35 µM
RXF 393 renal
  TGI: 0.892 µM
SF-268 CNS
  TGI: 1.93 µM
SF-295 CNS
  TGI: 3.53 µM
SF-539 CNS
  TGI: 1.83 µM
SK-MEL-2 melanoma
  TGI: 4.16 µM
SK-MEL-28 melanoma
  TGI: 4.21 µM
SK-MEL-5 melanoma
  TGI: 3.67 µM
SK-OV-3 ovarian
  TGI: 5.31 µM
SN12C renal
  TGI: 2.29 µM
SN12K1 renal
  TGI: 0.964 µM
SNB-19 CNS
  TGI: 4.65 µM
SNB-75 CNS
  TGI: 5.2 µM
SNB-78 CNS
  TGI: 2.66 µM
SW-620 colon
  TGI: 1.56 µM
U251 CNS
  TGI: 2.36 µM
UACC-257 melanoma
  TGI: 3.19 µM
UACC-62 melanoma
  TGI: 1.54 µM
UO-31 renal
  TGI: 4.44 µM
XF 498 CNS
  TGI: 2.64 µM

## Cc1cc(C(=O)NCCN(C)C)c2nc3ccccc3cc2c1
A498 renal
  TGI: 6.37 µM
A549 NSCLC
  TGI: 6.81 µM
CAKI-1 renal
  TGI: 1.29 µM
CCRF-CEM leukemia
  TGI: 9.57 µM
COLO 205 colon
  TGI: 3.54 µM
DLD-1 colon
  TGI: 10.9 µM
DMS 114 small cell lung
  TGI: 4.12 µM
DMS 273 small cell lung
  TGI: 10.8 µM
EKVX NSCLC
  TGI: 0.971 µM
HCC-2998 colon
  TGI: 17.7 µM
HCT-116 colon
  TGI: 10.1 µM
HCT-15 colon
  TGI: 11.4 µM
HL-60(TB) leukemia
  TGI: 3.95 µM
HOP-18 NSCLC
  TGI: 7.16 µM
HOP-62 NSCLC
  TGI: 6.38 µM
HOP-92 NSCLC
  TGI: 5.27 µM
HT29 colon
  TGI: 5.7 µM
IGROV1 ovarian
  TGI: 12.6 µM
K-562 leukemia
  TGI: > 31.3 µM
KM12 colon
  TGI: 14.1 µM
KM20L2 colon
  TGI: 4.31 µM
LOX IMVI melanoma
  TGI: 3.5 µM
M19-MEL melanoma
  TGI: 4.42 µM
MALME-3M melanoma
  TGI: 4.28 µM
MCF7 breast
  TGI: 8 µM
MOLT-4 leukemia
  TGI: > 21.8 µM
NCI-H226 lung
  TGI: 3.33 µM
NCI-H23 lung
  TGI: 5.93 µM
NCI-H460 lung
  TGI: 2.36 µM
NCI/ADR-RES ovarian
  TGI: 4.62 µM
OVCAR-3 ovarian
  TGI: 8.98 µM
OVCAR-4 ovarian
  TGI: 10.6 µM
OVCAR-5 ovarian
  TGI: 8.56 µM
OVCAR-8 ovarian
  TGI: 4.28 µM
P388 leukemia
  TGI: 1.68 µM
P388/ADR leukemia
  TGI: 2.18 µM
RPMI-8226 leukemia
  TGI: 5.71 µM
RXF 393 renal
  TGI: 4.32 µM
SF-268 CNS
  TGI: 10.2 µM
SF-295 CNS
  TGI: 3.91 µM
SF-539 CNS
  TGI: 12.7 µM
SK-MEL-2 melanoma
  TGI: 7.26 µM
SK-MEL-28 melanoma
  TGI: 10.7 µM
SK-MEL-5 melanoma
  TGI: 3.6 µM
SK-OV-3 ovarian
  TGI: 8.97 µM
SN12C renal
  TGI: 7.26 µM
SN12K1 renal
  TGI: 2.6 µM
SNB-19 CNS
  TGI: 6.89 µM
SNB-75 CNS
  TGI: 11.8 µM
SNB-78 CNS
  TGI: 14.5 µM
SW-620 colon
  TGI: 8.88 µM
U251 CNS
  TGI: 10.7 µM
UACC-257 melanoma
  TGI: 5.02 µM
UACC-62 melanoma
  TGI: 5.05 µM
UO-31 renal
  TGI: 3.93 µM
XF 498 CNS
  TGI: 3.69 µM
